Laboratory results: the NIST ThermoML archive (doi:10.1021/acs.jced.8b00632)
Numbers after ± are expanded uncertainties.

Key:
[1] = Crystal; DTA
[2] = Molar enthalpy of transition or fusion; conditions: Crystal; DSC

O=C(Nc1ccc(F)cc1F)c1cccnc1Oc1cccc(C(F)(F)F)c1
Normal melting temperature [1]: 162.37 ± 0.61 °C | Molar enthalpy of transition or fusion [2]: 9.42 ± 0.22 kcal/mol
